Test results published in patent publication US20100168054A1, “Functionalized Beta 1,6 Glucosamine Disaccharides and Process for Their Preparation” (OM PHARMA, priority 2006, published 2010).

Columns and labels:
[1] = tested on: human peripheral blood mononuclear cells (PBMC); assay: TNF-α secretion by human PBMC (ELISA); assay type: cell-based; settings: for TNF-α: 24 h; for TNF-α induction (in words): 0.2, 2, 20 μg/ml
Description: Peripheral blood from healthy donors (Centre de transfusion, Hôpital Universitaire, Geneva) was centrifuged to get the buffy coat. The buffy coat was mixed with Hanks' balanced saline solution (HBSS, Sigma, Buchs, Switzerland), layered over Ficoll Paque Plus (Amersham Pharmacia) to 1.077 g/mL and centrifuged (2800 rpm, 20° C., 25 min). Cells harvested from the interphase were washed twice in HBSS at 800 rpm for 15 min at room temperature and the pelleted cells were resuspended in HBSS. The cell counts were performed using a Neubauer cell. All cell cultures were performed in RPMI-1640 medium supplemented with penicillin (100 U/mL), streptomycin (100 μg/mL), L-glutamine (2 mmol/L) and 10% fetal calf serum (FCS), all obtained from Sigma. For in vitro stimulation, the cells were cultured at a concentration of 1×10^6 viable cells/well.
PBMC were incubated at 37° C. and under 5% CO2 atmosphere with the controls (see below) and with the products of the invention at 1, 5, and 20 μg/mL for IL-6, and at 0.2, 2, and 20 μg/mL for TNF-α secretion. Medium: RPMI alone.
The surpernatants of the cultures were harvested after 24 h and the concentration of IL-6 and TNF-α were measured by an enzyme-linked immunosorbent assay (ELISA) (Human IL-6 and TNF-α ELISA Set, BD OptEIA, San Diego, USA), according to the manufacturer instructions. The detection limits were 10 and 8 pg/mL respectively.

rat mast cells = assay: Histamine secretion (compound 48/80-stimulated); assay type: cell-based; settings: Rattus norvegicus, Mast cell, 2 min, compound 48/80 0.1 μg/ml, 37° C., read-out: IC50
Description: Using an in vitro rat model of mast cell degranulation (proposed by the CRO CEREP, catalog number 2006: 771-c), we aimed to investigate whether the synthetic molecules OM-174-DP (compound 1b) OM-174-MP-PD (19), OM-174-MP-EP (33), OM-174-MP-CM (35c) and OM-174-MP-PR (17) would inhibit histamine secretion by compound 48/80-stimulated mastocytes. The protocol used is briefly summarized below:
The results are expressed as a percent of control specific activity ((measured specific activity/control specific activity)×100) obtained in the presence of the test compounds. The IC50 values (concentration causing a half-maximal inhibition of control specific activity) were determined by non-linear regression analysis of the inhibition curves generated with mean replicate values using Hill equation curve fitting (Y=D+[(A−D)/(1+(C/C50)nH)], where Y=specific activity, D=minimum specific activity, A=maximum specific activity, C=compound concentration, C50=IC50, and nH=slope factor). This analysis was performed using a software developed at Cerep (Hill software) and validated by comparison with data generated by the commercial software SigmaPlot® 4.0 for Windows® (© 1997 by SPSS Inc.).
In each experiment, the reference compound was tested concurrently with the test compounds in order to assess the assay suitability. It was tested at several concentrations (for IC50 value determination), and the data were compared with historical values determined at CEREP. The assay was rendered valid if the suitability criteria were met, in accordance with the corresponding Standard Operating Procedure.

murine macrophages = assay: Nitric oxide production by murine macrophages (Griess reaction); assay type: cell-based, C57/BL6 mice; settings: 22 h
Description: Experimental assay of nitric oxide production by murine macrophages: Six-week old male C57/BL6 mice (six weeks old male, SPF quality, Charles Rivier, FR) were killed by CO2 inhalation. The hip, femur, and tibia from the posterior appendage were removed. The bone marrow was extracted from the lumen by injecting Dulbecco's Modified Eagle Medium (DH) through the bone after cutting both end portions. After washing, the stem cells were resuspended (40'000 cells/mL) in DH medium supplemented with 20% horse serum and 30% L929 cell supernatant. The cell suspension is incubated for 8 days in an incubator at 37° C. under 8% CO2 and moisture-saturated atmosphere. Macrophages are then detached with ice-cold PBS, washed and resuspended in DH medium supplemented with 5% fetal calf serum (FCS), amino acids and antibiotics (DHE medium). The cell density is adjusted to 700′000 cells/mL. Aqueous solutions of the products are serially diluted in DHE medium directly in microtiter plates. The products are tested in triplicates and each microtiter plate comprises a negative control composed of medium. The final volume in each well is […]. 100 μL of the cell suspension are added to the diluted products and the cells are incubated for 22 h in an incubator at 37° C., under 8% CO2 and a moisture-saturated atmosphere. At the end of the incubation period, 100 μL of supernatant are transferred to another microtiter plate and the nitrite concentration produced in each supernatant is determined by running a Griess reaction. 100 μL of Griess reagent (5 mg/mL of sulfanilamide+0.5 mg/mL of N-(1-naphtyl)ethylene-diamine hydrochloride) in 2.5% aqueous phosphoric acid, are added to each well. The microtiter plates are read with a spectrophotometer (SpectraMax Plus, Molecular Devices) at 562 nm against a reference at 690 nm. The nitrite concentration is proportional to nitric oxide content being formed. The nitrite content is determined based on a standard curve. The results are given as mean value±standard deviation and plotted as a dose response curve.

TLR4 = target: T1, TLR4 (Homo sapiens, UniProt O00206+Q9Y6Y9); assay: HEK-MD2-TLR4-CD14 IL-8 secretion; assay type: cell-based; settings: 24 h
T1 construct: expressed in transfected cells; host or cells: HEK293
Description: The HEK293 cell line was chosen for its null or low basal expression of the TLR genes. These cells enable efficient monitoring of TLR activity using ELISA analysis such as IL-8 titration or reporter-based systems that monitor TLR-induced NF-κB activation. HEK-TLR2 cells (Invivogen, Toulouse, France) are engineered HEK293 cells stably transfected with multiple genes from the TLR2 pathway that include TLR2 and genes participating in the recognition or involved in the signaling cascade. These cells secrete IL-8 after TLR2 stimulation. The experiments were performed according to manufacturers' instructions. Briefly, 2×10^4 cells/well (200 ul RPMI) are incubated at 37° C. during 3 days (5% CO2). The medium is removed, and 90 ul RPMi+5% FCS is added to the wells Then the agonists and controls are added (10 ul/well). The cells return to the incubator for 24 hours. The supernatants are collected and the IL-8 ELISA is performed according to manufacturer's instructions
HEK-MD2-TLR4-CD14 are highly sensitive to LPS. They were obtained by stable transfection of HEK293 cells with the TLR4, MD2 and CD14 genes and an NF-κB-inducible reporter system. They secrete IL-8. We used the same experimental procedure as for the other HEK cell lines described above.

T1 sequence (O00206 24-839): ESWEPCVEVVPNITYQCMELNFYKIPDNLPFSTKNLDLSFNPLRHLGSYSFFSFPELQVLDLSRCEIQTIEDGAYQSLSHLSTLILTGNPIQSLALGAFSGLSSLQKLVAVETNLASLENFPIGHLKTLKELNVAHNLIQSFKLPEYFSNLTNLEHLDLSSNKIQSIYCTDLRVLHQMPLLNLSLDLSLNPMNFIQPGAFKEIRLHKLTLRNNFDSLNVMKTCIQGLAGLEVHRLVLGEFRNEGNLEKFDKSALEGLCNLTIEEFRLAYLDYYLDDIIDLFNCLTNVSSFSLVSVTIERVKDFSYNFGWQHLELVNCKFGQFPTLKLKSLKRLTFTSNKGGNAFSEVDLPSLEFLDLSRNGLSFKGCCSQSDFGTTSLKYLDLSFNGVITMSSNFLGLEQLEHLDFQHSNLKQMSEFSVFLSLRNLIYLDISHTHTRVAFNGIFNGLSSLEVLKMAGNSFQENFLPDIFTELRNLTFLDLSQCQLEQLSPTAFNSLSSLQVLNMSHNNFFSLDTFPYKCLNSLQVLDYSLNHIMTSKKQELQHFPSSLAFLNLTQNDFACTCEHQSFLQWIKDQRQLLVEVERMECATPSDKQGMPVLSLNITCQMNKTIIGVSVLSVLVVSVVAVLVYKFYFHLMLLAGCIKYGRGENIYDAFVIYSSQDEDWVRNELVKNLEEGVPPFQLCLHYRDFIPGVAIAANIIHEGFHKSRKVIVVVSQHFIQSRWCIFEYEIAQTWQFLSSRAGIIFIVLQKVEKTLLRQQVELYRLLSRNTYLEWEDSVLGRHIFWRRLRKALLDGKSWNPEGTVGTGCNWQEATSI
T1 sequence (Q9Y6Y9 17-160 limits assumed): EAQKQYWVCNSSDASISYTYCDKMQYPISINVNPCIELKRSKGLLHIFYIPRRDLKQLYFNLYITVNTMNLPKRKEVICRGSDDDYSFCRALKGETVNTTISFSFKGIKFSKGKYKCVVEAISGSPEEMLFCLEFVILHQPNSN

Row | IL-8 secretion, mean (TLR4; 14 ng/ml) | IL-8 secretion, mean (TLR4; 41 ng/ml) | IL-8 secretion, mean (TLR4; 124 ng/ml) | IL-8 secretion, mean (TLR4; 370 ng/ml) | IL-8 secretion, mean (TLR4; 1111 ng/ml) | IL-8 secretion, mean (TLR4; 3333 ng/ml) | IL-8 secretion, mean (TLR4; 10000 ng/ml) | SMILES | TNF-α ([1]; 0.2 μg/ml) | TNF-α ([1]; 2 μg/ml) | TNF-α ([1]; 20 μg/ml) | TNF-α induction (in words) [1] | IC50 (rat mast cells) | nitric oxide production (in words), FIG. 25 (murine macrophages) | dose from which active (nitric oxide production) (murine macrophages)
1 |  |  |  |  |  |  |  | CCCCCCCCCCCC(=O)O[C@H](CCCCCCCCCCC)CC(=O)NC1C(OCC2OC(OP(=O)(O)O)C(NC(=O)C[C@H](O)CCCCCCCCCCC)C(O)C2O)OC(CO)C(OP(=O)(O)O)C1O (stereo partly drawn) [compound 1b, 2-Deoxy-6-O-[2-deoxy-4-O-(dihydroxyphosphoryl)-2-[(R)-3-dodecanoyloxytetradecanoylamino]-β-D-glucopyranosyl]-2-[(R)-3-hydroxytetradecanoylamino]-α-D-glucopyranosyl dihydrogenophosphate] | 37 pg/mL | 117 pg/mL | 1105 pg/mL | induced high levels of TNF-α | 86 nM |  | 
2 | 1.75 pg/mL | 1.68 pg/mL | 1.62 pg/mL | 1.66 pg/mL | 1.60 pg/mL | 1.63 pg/mL | 1.90 pg/mL | CCCCCCCCCCCC(=O)O[C@H](CCCCCCCCCCC)CC(=O)N[C@H]1[C@H](OC[C@H]2O[C@H](O)[C@H](NC(=O)C[C@H](O)CCCCCCCCCCC)[C@@H](O)[C@@H]2O)O[C@H](CO)[C@@H](OP(=O)(O)O)[C@@H]1O [compound 16, 2-Deoxy-6-O-[2-deoxy-4-O-(dihydroxyphosphoryl)-2-[(R)-3-dodecanoyloxytetradecanoylamino]-β-D-glucopyranosy]-2-[(R)-3-hydroxytetradecanoylamino]-α-D-glucopyranose] | 0.69 pg/mL | 49 pg/mL | 1705 pg/mL | induced high levels of TNF-α |  | able to induce high levels of nitric oxide | 
3 | 1.88 pg/mL | 1.97 pg/mL | 1.93 pg/mL | 1.85 pg/mL | 1.94 pg/mL | 1.89 pg/mL | 1.70 pg/mL | CCCCCCCCCCCC(=O)O[C@H](CCCCCCCCCCC)CC(=O)N[C@H]1[C@H](OC[C@H]2O[C@H](OCCC)[C@H](NC(=O)C[C@H](O)CCCCCCCCCCC)[C@@H](O)[C@@H]2O)O[C@H](CO)[C@@H](OP(=O)(O)O)[C@@H]1O [compound 17, Propyl-2-Deoxy-6-O-[2-deoxy-4-O-(dihydroxyphosphoryl)-2-[(R)-3-dodecanoyloxytetradecanoylamino]-β-D-glucopyranosyl]-2-[(R)-3-hydroxytetradecanoylamino]-α-D-glucopyranoside] | 46 pg/mL | 474 pg/mL | 2114 pg/mL | induced high levels of TNF-α | 1600 nM | able to induce high levels of nitric oxide | 
4 | 1.83 pg/mL | 1.79 pg/mL | 1.65 pg/mL | 1.64 pg/mL | 1.58 pg/mL | 1.62 pg/mL | 1.78 pg/mL | CCCCCCCCCCCC(=O)O[C@H](CCCCCCCCCCC)CC(=O)N[C@H]1[C@H](OC[C@H]2O[C@H](OCCOP(=O)(O)O)[C@H](NC(=O)C[C@H](O)CCCCCCCCCCC)[C@@H](O)[C@@H]2O)O[C@H](CO)[C@@H](OP(=O)(O)O)[C@@H]1O [compound 33, 2-(Phosphonooxy)ethyl-2-Deoxy-6-O-[2-deoxy-4-O-(dihydroxyphosphoryl)-2-[(R)-3-dodecanoyloxytetradecanoylamino]-β-D-glucopyranosyl]-2-[(R)-3-hydroxytetradecanoylamino]-α-D-glucopyranoside] | 8.0 pg/mL | 8.3 pg/mL | 21 pg/mL |  | 210 nM |  | 

Row | SMILES | IL-8 secretion, mean (TLR4; 14 ng/ml) | IL-8 secretion, mean (TLR4; 41 ng/ml) | IL-8 secretion, mean (TLR4; 124 ng/ml) | IL-8 secretion, mean (TLR4; 370 ng/ml) | IL-8 secretion, mean (TLR4; 1111 ng/ml) | IL-8 secretion, mean (TLR4; 3333 ng/ml) | IL-8 secretion, mean (TLR4; 10000 ng/ml) | TNF-α ([1]; 0.2 μg/ml) | TNF-α ([1]; 2 μg/ml) | TNF-α ([1]; 20 μg/ml) | TNF-α induction (in words) [1] | IC50 (rat mast cells) | nitric oxide production (in words), FIG. 25 (murine macrophages) | dose from which active (nitric oxide production) (murine macrophages)
5 | CCCCCCCCCCCC(=O)O[C@H](CCCCCCCCCCC)CC(=O)N[C@H]1[C@H](OC[C@H]2O[C@H](OCC(O)CO)[C@H](NC(=O)C[C@H](O)CCCCCCCCCCC)[C@@H](O)[C@@H]2O)O[C@H](CO)[C@@H](OP(=O)(O)O)[C@@H]1O (stereo partly drawn) [compound 19, 2,3-Dihydroxypropyl-2-Deoxy-6-O-[2-deoxy-4-O-(dihydroxyphosphoryl)-2-[(R)-3-dodecanoyloxytetradecanoylamino]-β-D-glucopyranosyl]-2-[(R)-3-hydroxytetradecanoylamino]-α-D-glucopyranoside] | 1.69 pg/mL | 1.64 pg/mL | 1.56 pg/mL | 1.67 pg/mL | 1.73 pg/mL | 1.88 pg/mL | 1.96 pg/mL | 9.2 pg/mL | 5.1 pg/mL | 11.2 pg/mL |  | 160 nM | able to induce high levels of nitric oxide | ≥ 0.01 µg/mL
